Tests used:
[1] = molecular target: Human immunodeficiency virus type 1 protease (Human immunodeficiency virus 1, UniProt Q72874); test: (§1) Inhibitory activity against HIV-1 protease
[2] = molecular target: Human immunodeficiency virus type 1 protease (Human immunodeficiency virus 1) (UniProt Q72874); details: 100 uM
Description: Inhibitory activity against HIV-1 protease at 100 uM concentration

[3] = molecular target: Human immunodeficiency virus type 1 protease (Human immunodeficiency virus 1) (UniProt Q72874); test: as §1; details: concentration not given here

O=C1N[C@@H](Cc2ccccc2)C(O)[C@H](Cc2ccccc2)N1
IC50 [1]: > 100 µM | inhibition [2]: 35%

C=CCN1C(=O)N(CC=C)[C@@H](Cc2ccccc2)C(O)[C@@H]1Cc1ccccc1
IC50 [1]: 53 µM

O=C1N(Cc2ccc3ccccc3c2)[C@@H](Cc2ccccc2)C(O)[C@H](Cc2ccccc2)N1Cc1ccc2ccccc2c1
inhibition [3]: 6%

O=C1N(Cc2ccccc2)[C@@H](Cc2ccccc2)C(O)[C@H](Cc2ccccc2)N1Cc1ccccc1
IC50 [1]: 89 µM

O=C1N(CC2CC2)[C@@H](Cc2ccccc2)C(O)[C@H](Cc2ccccc2)N1CC1CC1
IC50 [1]: 9 µM

— ChEMBL document CHEMBL1151034, “De novo design of nonpeptidic HIV-1 protease inhibitors: Incorporation of structural water” (Bioorg Med Chem Lett, 1994)
